Test results published in PubChem BioAssay (NCI).
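A five-concentration, 48-hour dose response in 96-well plates underlies each endpoint, interpolated linearly between surrounding concentrations. GI50 = concentration required for 50% inhibition of growth. TGI: total growth inhibition.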 Where a SMILES comes first, the peptide text is derived from it. [ ]: non-standard residue; d: D form. ξ: configuration not given here. Pentanoyl(2-O,4-OH,5-Cl) = O=C(O)C(O)CC(O)CCl; Ile(3ξ) = CCC(C)[C@H](N)C(=O)O; NMeV = CN[C@H](C(=O)O)C(C)C; NMeA = CN[C@@H](C)C(=O)O; βAla = NCCC(=O)O

Legend:
Assay in all cases: NCI anticancer screen, dose series, 48 h
TK-10 renal = test system: TK-10 renal
HL-60(TB) leukemia = test system: HL-60(TB) leukemia
EKVX NSCLC = test system: EKVX NSCLC
HOP-62 NSCLC = test system: HOP-62 NSCLC
UO-31 renal = test system: UO-31 renal
786-0 renal = test system: 786-0 renal
NCI-H23 lung = test system: NCI-H23 lung
SF-539 CNS = test system: SF-539 CNS

Row | Structure (SMILES) | GI50 (TK-10 renal) | TGI (TK-10 renal) | GI50 (HL-60(TB) leukemia) | TGI (HL-60(TB) leukemia) | GI50 (EKVX NSCLC) | TGI (EKVX NSCLC) | GI50 (HOP-62 NSCLC) | TGI (HOP-62 NSCLC) | GI50 (UO-31 renal) | TGI (UO-31 renal) | GI50 (786-0 renal) | TGI (786-0 renal) | GI50 (NCI-H23 lung) | TGI (NCI-H23 lung) | GI50 (SF-539 CNS) | TGI (SF-539 CNS)
1 | O=C(Nc1ccccc1/C=C/c1n[nH]c2ccccc12)c1ccccc1 | 4.85 µM | 16 µM | 0.589 µM | 16.2 µM | 1.34 µM | 8.91 µM | 2.15 µM | 6.13 µM | 4.14 µM | 19.3 µM | 12.6 µM | 26.7 µM | 2.2 µM | 17.6 µM | 4.26 µM | 14.1 µM
2 | CC(NC(=O)c1ccc(Cl)c(Cl)c1)c1ccc(-c2ccccc2)cc1 (centres undefined) |  | 68.7 µM |  | > 100 µM |  | > 100 µM |  | 54.5 µM |  | 29.4 µM |  | 47.5 µM |  | > 100 µM |  | 42.9 µM
3 | CCn1c(-c2nonc2N)nc2cnc(Oc3cccc(NC(=O)c4ccc(OCCN5CCOCC5)cc4)c3)cc21 | 0.564 µM | 13.7 µM | 10.3 µM | > 25 µM | 0.752 µM | > 25 µM | 1.5 µM | > 25 µM | 0.0089 µM | 5.07 µM | 3.49 µM | > 25 µM | 4.9 µM | > 25 µM | 0.929 µM | > 25 µM
4 | O=C(O)c1c2c(c(O)c3c1CN(C1CCCCC1)CO3)OCN(C1CCCCC1)C2 |  | > 100 µM |  |  |  | > 100 µM |  | > 100 µM |  | > 100 µM |  | > 100 µM |  | > 100 µM |  | > 100 µM
5 | C=C1C(=O)O[C@@H]2C[C@@]3(C)CCC[C@H](C)C3=C[C@H]12 (tested in a mixture with another compound) |  | 6.92 µM |  |  |  | 15 µM |  | 7.74 µM |  | 3.57 µM |  | 2.83 µM |  | 5.67 µM |  | 4.85 µM
6 | O=c1[nH]c(=O)n(Cc2ccc(C34CC5CC(CC(C5)C3)C4)c(O)c2)cc1F | 15.4 µM | 33.7 µM | 3.05 µM | 16 µM | 16.4 µM | 35.7 µM | 14.6 µM | 31.4 µM | 14.2 µM | 29.8 µM | 13.8 µM | 28.5 µM | 12.5 µM | 27.2 µM | 14.7 µM | 30.1 µM
7 | CC(C)(C)CNCCO |  | > 100 µM |  | > 100 µM |  | > 100 µM |  | > 100 µM |  | > 100 µM |  | > 100 µM |  | > 100 µM |  | > 100 µM
8 | Clc1ccc2c(NC3CCC(NC4CCCCC4)CC3)ccnc2c1 (centres undefined) | 2.13 µM | 7.11 µM |  |  | 4.55 µM | 43 µM |  |  | 3.42 µM | 16 µM | 11.9 µM | 24.5 µM | 7.74 µM | 35.9 µM | 2.03 µM | 4.13 µM
9 | Cc1ccc(/C=C/C(=O)c2ccc(F)cc2)s1 | 1.84 µM | 4.33 µM | 2.26 µM | 7.22 µM | 5.83 µM | 20.3 µM | 14.2 µM | 28 µM | 1.69 µM | 4.04 µM | 3.41 µM | 14.1 µM | 3.67 µM | 16.5 µM | 3.56 µM | 10.2 µM
10 | C=CC(=O)N1CCN([C@@H](CC2CC2)c2ccc([C@H](C)Nc3ncc4c(n3)N(CC)C(=O)OC4)cc2)CC1 | 9.02 µM | 23.1 µM | 2.28 µM | 12.7 µM | 14.1 µM | 27.6 µM | 12.4 µM | 32.9 µM | 10.8 µM | 26.3 µM | 11.2 µM | 25.7 µM |  |  | 11.7 µM | 24.3 µM
11 | Cc1cc2c(cc1Cl)SC(=Nc1ccc(Cl)cc1)N(S(=O)(=O)c1ccc(Br)s1)S2(=O)=O | 19.9 µM | 49.6 µM | 22.4 µM | 46.8 µM | 16.8 µM | 36.3 µM | 17.8 µM | 37.4 µM | 24.6 µM | 61 µM | 11.7 µM | 24.7 µM | 10.8 µM | 25 µM | 2.01 µM | 9.93 µM
12 | COc1cccc(C2CC(C)(O)Oc3cc4c(cc32)OCO4)c1 (centres undefined) |  | 80.2 µM |  | > 100 µM |  | > 100 µM |  | 74.4 µM |  | 72.2 µM |  | > 100 µM |  | > 100 µM |  | 
13 | CCC(C)[C@@H]1NC(=O)[C@@H]2CCCN2C(=O)C(CC(O)CCl)OC(=O)CCNC(=O)[C@H](C)N(C)C(=O)[C@H](C(C)C)N(C)C1=O (some centres undefined) (cyclo([Ile(3ξ)][NMeV][NMeA][βAla][Pentanoyl(2-O,4-OH,5-Cl)]P)) |  | > 100 µM |  | > 100 µM |  | > 100 µM |  | > 100 µM |  | > 100 µM |  | > 86.2 µM |  | > 100 µM |  | > 100 µM
14 | N#Cc1cnc2ccc(NCc3cnc[nH]3)cc2c1Nc1ccc(F)c(Cl)c1 | 2.77 µM | 97.2 µM | 15.2 µM | > 100 µM |  |  | 10.5 µM | > 100 µM | 3.52 µM | > 100 µM | 9.21 µM | > 100 µM | > 100 µM | > 100 µM | 14.7 µM | > 100 µM
15 | O=C(O)CN(CCN(CC(=O)O)CC(=O)O)CCN(CC(=O)O)CC(=O)O | 2.87 µM | 7.52 µM | 2.12 µM | 5.01 µM | 3.26 µM | 9.91 µM | 1.98 µM | 5.07 µM |  |  | 2.54 µM | 6.72 µM | 2.45 µM | 10.2 µM | 2.86 µM | 7.98 µM
16 | Cc1cc[c]([Sb]2[O]C(CO)C(C(O)C(O)C(=O)O)[O]2)cc1 (centres undefined) |  | 0.58 µM |  |  | 41 µM | > 100 µM | 45.2 µM | > 100 µM | > 100 µM | > 100 µM | 38.4 µM | > 100 µM | > 100 µM | > 100 µM |  | 
17 | Oc1ccc(CCNc2nc3ccccc3c3[nH]c4ccccc4c23)cc1O | 5.37 µM | 19 µM | 2.07 µM | 4.36 µM | 8.99 µM | 37.4 µM | 3.78 µM | 13.5 µM |  |  | 1.62 µM | 2.98 µM | 6.87 µM | 22.7 µM | 2.02 µM | 3.6 µM
